Tested on: culture from a ruminant animal foregut
Assay: administration of feed material and methanogenesis inhibitor to culturing device liquor, recording CH4 and dH2 (FIG. 11)
Format: cell-based, sheep
Settings: final CHBr3 concentration 6 μM in 1.5 L liquor
Description: FIG. 11 comprises a graph 1101 of the measured temperature on the upper y-axis 1102 shown in degrees Celsius (° C.), the measured CH4 on the middle y-axis 1103 in percentage (%), and the measured dH2 on the lower y-axis 1104 in milli Volts (mV) versus time on the x-axis 1105 measured in hours.
The plot 1106 of CH4 is the output of the SGX methane sensor as described in FIG. 8 800 and the accompanying text.
The plot 1006 of dH2 is the voltage generated by a hydrogen fuel cell as described in FIG. 7 700 and the accompanying text.
The culturing device vessel was inoculated with a culture sourced from a freshly slaughtered grass-fed ewe hogget sheep of mixed breed. After resection of the reticulorumen organ, 2.5 L the rumen content was determined to have a pH Of 6.0 and then transferred to a 5 L jug and mixed with 2.5 L of rainwater. A 0.7 L aliquot of this mixture was used to inoculate the vessel of a culturing device containing 0.8 L of rainwater pre-heated to the culturing device setpoint temperature of about 39° C.
After inoculation, the culturing device was prescribed the movement algorithm described in FIG. 10 1000 above.
As described herein, the vessel of the present examples has an internal volume of about 2.0 L and is typically operated with 1.5 L of liquor and 0.5 L of headspace. […]

BrC(Br)Br [CHBr3]
measured CH4 (plot 1106), effect of added CHBr3 (given with daily feed on, 39° C.): decreasing CH4 | measured dH2 (plot 1107, hydrogen fuel cell voltage) (then ceased, dH2 anticipated to increase when methanogenesis is reduced): mirrored in the plot 1107 of the dH2

— patent US20260218109A1, “CULTURING DEVICE AND METHOD” (METHANE […] LIMITED, priority 2023, published 2026)
